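96-well plates; 48 h exposure; 5 concentrations. Endpoints by linear interpolation between flanking doses. Not reached: highest tested concentration assigned. GI50 is the concentration that inhibits growth by half.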 Calls of active or inactive are those of the source. No stated cut-off is given here; in the data, active = GI50 up to about 1.1 µM and inactive = higher.
Assays:
Assay in all cases: growth of human tumour cells (NCI), 48 h
[1] = system: SNB-19
[2] = system: SK-MEL-2
[3] = system: CAKI-1
[4] = system: HOP-62
[5] = system: SR
[6] = system: RPMI-8226
[7] = system: UO-31
[8] = system: SW-620
[9] = system: HL-60
[10] = system: NCI-H522
[11] = system: SK-MEL-28
[12] = system: MOLT-4
[13] = system: SNB-75
[14] = system: T47D
[15] = system: NCI/ADR-RES
[16] = system: NCI-H460
[17] = system: HCT-116
[18] = system: HCC 2998
[19] = system: NCI-H226

Measured: GI50

COc1c(Sc2c(SCSc3cnc4ccccc4c3Sc3cnc4ccccc4c3OC)cnc3ccccc23)cnc2ccccc12
inactive: [1] 22.4 µM | [2] > 100 µM | [3] > 100 µM | [4] 42.9 µM | [5] 21.8 µM | [6] 9.2 µM | [7] 24.7 µM | [8] 31.6 µM | [9] 1.59 µM | [10] 19.2 µM | [11] 29 µM | [12] 55.8 µM | [13] 21.7 µM | [14] > 100 µM | [15] 42.5 µM | [16] 98.2 µM | [17] 46.5 µM | [18] > 100 µM

COc1ccc(CNC(=O)[C@H](Cc2ccc(O)cn2)NC(C)=O)cc1
inactive: [1] > 100 µM | [2] > 100 µM | [3] > 100 µM | [4] > 100 µM | [5] > 100 µM | [6] 64.9 µM | [7] > 100 µM | [8] > 100 µM | [9] > 100 µM | [10] > 100 µM | [19] > 100 µM | [11] > 100 µM | [12] > 100 µM | [14] > 100 µM | [15] > 100 µM | [16] > 100 µM | [17] 89.3 µM | [18] > 100 µM

COc1ccc(C(=O)/C=C/c2ccc(OCC(=O)O)cc2)cc1
inactive: [1] 98.6 µM | [2] 44.5 µM | [3] > 100 µM | [4] > 100 µM | [5] 13 µM | [6] > 100 µM | [7] > 100 µM | [8] 41.5 µM | [9] > 100 µM | [10] 36 µM | [11] 36.6 µM | [12] 8.57 µM | [13] > 100 µM | [14] 38.4 µM | [15] 83.4 µM | [17] 47.1 µM | [18] 27.7 µM

Cc1cc(-c2nc3cc(O)ccc3s2)ccc1N
inactive: [1] 33.7 µM | [2] 28.4 µM | [3] 34 µM | [4] 26.8 µM | [5] 32 µM | [7] 18.7 µM | [8] 38 µM | [9] 32.1 µM | [10] 31 µM | [19] 31.4 µM | [11] 27.8 µM | [12] 96.2 µM | [13] 23.7 µM | [14] 22.9 µM | [15] 38.1 µM | [16] 29 µM | [17] 22.8 µM | [18] 37.8 µM
